Reference: ChEMBL document CHEMBL4316626, “N-Acyl pyrazoles: Effective and tunable inhibitors of serine hydrolases” (Bioorg Med Chem, 2019)
Activity calls are given as the source filed them. No cut-off for these calls is given here.

Columns and labels:
[1] = Inhibition of recombinant rat FAAH deltaTM mutant expressed in Escherichia coli using 14C-labeled oleamide as substrate preincubated for 3 hrs followed by substrate addition and measured by TLC based Dixon-plot analysis; conditions: read-out: Ki(app)
[2] = target: T1, Fatty-acid amide hydrolase 1 (Mus musculus, UniProt O08914); experiment: Inhibition of FP-rhodamine probe binding to FAAH in mouse brain membrane proteome preincubated for 1 hr followed by FP-rhodamine addition and measured after 30 mins by SDS-PAGE based fluorescence assay; assay type: cell membranes
T1 sequence (O08914 whole entry): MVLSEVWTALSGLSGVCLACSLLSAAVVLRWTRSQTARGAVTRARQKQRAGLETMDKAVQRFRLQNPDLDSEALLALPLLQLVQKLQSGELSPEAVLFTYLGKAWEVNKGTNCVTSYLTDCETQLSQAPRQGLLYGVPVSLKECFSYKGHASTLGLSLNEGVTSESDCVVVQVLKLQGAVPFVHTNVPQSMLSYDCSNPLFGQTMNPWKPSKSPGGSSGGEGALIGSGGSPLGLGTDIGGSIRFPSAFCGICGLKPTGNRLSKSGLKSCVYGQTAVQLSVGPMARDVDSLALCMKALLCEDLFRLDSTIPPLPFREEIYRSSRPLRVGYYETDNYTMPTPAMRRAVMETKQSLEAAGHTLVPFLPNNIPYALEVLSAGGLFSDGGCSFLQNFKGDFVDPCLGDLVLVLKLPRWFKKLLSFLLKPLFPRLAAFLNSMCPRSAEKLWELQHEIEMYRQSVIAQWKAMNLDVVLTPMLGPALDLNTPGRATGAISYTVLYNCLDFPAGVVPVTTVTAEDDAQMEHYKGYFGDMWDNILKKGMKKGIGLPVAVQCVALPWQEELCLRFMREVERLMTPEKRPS

[3] = target: T2, Monoglyceride lipase (Mus musculus, UniProt O35678); experiment: Inhibition of FP-rhodamine probe binding to MGLL in mouse brain membrane proteome preincubated for 1 hr followed by FP-rhodamine addition and measured after 30 mins by SDS-PAGE based fluorescence assay; assay type: cell membranes
T2 sequence (O35678 whole entry): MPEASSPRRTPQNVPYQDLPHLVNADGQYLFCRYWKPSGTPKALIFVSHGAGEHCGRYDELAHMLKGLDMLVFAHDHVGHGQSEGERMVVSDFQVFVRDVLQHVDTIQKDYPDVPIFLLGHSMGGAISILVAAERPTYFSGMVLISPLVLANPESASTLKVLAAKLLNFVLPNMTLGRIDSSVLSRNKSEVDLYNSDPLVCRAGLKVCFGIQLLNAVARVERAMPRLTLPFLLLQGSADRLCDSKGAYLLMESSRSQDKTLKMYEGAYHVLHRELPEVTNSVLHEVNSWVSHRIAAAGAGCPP

[4] = target: T3, Monoacylglycerol lipase ABHD6 (Mus musculus, UniProt Q8R2Y0); experiment: Inhibition of FP-rhodamine probe binding to ABHD6 in mouse brain membrane proteome preincubated for 1 hr followed by FP-rhodamine addition and measured after 30 mins by SDS-PAGE based fluorescence assay; assay type: cell membranes
T3 sequence (Q8R2Y0 whole entry): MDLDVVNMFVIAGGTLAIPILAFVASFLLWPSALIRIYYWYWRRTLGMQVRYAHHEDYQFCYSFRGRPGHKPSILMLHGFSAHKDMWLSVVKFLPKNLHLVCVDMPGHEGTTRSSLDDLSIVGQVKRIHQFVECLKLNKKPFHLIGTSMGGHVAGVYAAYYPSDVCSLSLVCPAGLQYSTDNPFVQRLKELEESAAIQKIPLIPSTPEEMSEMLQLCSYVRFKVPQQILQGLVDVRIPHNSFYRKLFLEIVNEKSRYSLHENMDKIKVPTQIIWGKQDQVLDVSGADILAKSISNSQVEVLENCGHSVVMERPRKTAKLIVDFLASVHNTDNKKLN

[5] = target: T4, Neutral cholesterol ester hydrolase 1 (Mus musculus, UniProt Q8BLF1); experiment: Inhibition of FP-rhodamine probe binding to KIAA1363 in mouse brain membrane proteome preincubated for 1 hr followed by FP-rhodamine addition and measured after 30 mins by SDS-PAGE based fluorescence assay; assay type: cell membranes
T4 sequence (Q8BLF1 whole entry): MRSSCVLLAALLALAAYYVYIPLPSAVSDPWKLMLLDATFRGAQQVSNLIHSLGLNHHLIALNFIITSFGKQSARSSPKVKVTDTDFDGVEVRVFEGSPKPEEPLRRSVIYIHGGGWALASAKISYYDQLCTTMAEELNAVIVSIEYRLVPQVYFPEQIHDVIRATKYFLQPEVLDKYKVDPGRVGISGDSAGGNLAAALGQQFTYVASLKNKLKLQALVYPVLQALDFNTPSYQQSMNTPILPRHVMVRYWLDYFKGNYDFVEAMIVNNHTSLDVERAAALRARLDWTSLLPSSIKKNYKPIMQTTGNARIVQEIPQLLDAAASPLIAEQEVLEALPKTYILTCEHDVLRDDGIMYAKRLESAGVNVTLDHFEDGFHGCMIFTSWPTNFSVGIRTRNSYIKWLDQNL

[6] = species on record: Mus musculus; experiment: Selectivity ratio of IC50 for inhibition of FP-rhodamine probe binding to ABHD6 in mouse brain membrane proteome to IC50 for inhibition of FP-rhodamine probe binding to MGLL in mouse brain membrane proteome; assay type: cell membranes
[7] = species on record: Rattus norvegicus; experiment: Inhibition of recombinant rat FAAH deltaTM mutant expressed in Escherichia coli at 10 nM using 14C-labeled oleamide as substrate preincubated for 3 hrs by TLC method relative to control
[8] = species on record: Rattus norvegicus; experiment: Irreversible inhibition of recombinant rat FAAH deltaTM mutant expressed in Escherichia coli at 10 nM using 14C-labeled oleamide as substrate preincubated for 3 hrs followed by dialysis for 18 hrs
[9] = species on record: Rattus norvegicus; experiment: Time-dependent irreversible inhibition of recombinant rat FAAH deltaTM mutant expressed in Escherichia coli using 14C-labeled oleamide as substrate by TLC method

IC50 [2] [nM]	IC50 [3] [nM]	IC50 [4] [nM]	IC50 [5] [nM]	Ratio IC50 [6]	inhibition [7] [%]	inhibition [8]	TDI [9]	Compound	Ki [1] [nM]
790000	20	130000	> 100000	> 1000	–	–	–	N#Cc1cnn(C(=O)N2CCN(C(c3ccc(OCc4ccccc4)cc3)c3ccc(OCc4ccccc4)cc3)CC2)c1	25000
< 10	55	< 10	> 100000	–	> 70	Active	–	N#Cc1cnn(C(=O)N2CCN(Cc3ccc4ccccc4c3)CC2)c1	0.16
< 10	< 10	< 10	> 100000	–	> 70	Active	Active	N#Cc1cnn(C(=O)N2CCN(Cc3ccc(OCc4ccccc4)cc3)CC2)c1	0.16
> 100000	8	560	> 100000	70	–	–	–	N#Cc1cnn(C(=O)N2CCN(C(c3ccc4ccccc4c3)c3ccc4ccccc4c3)CC2)c1	–
